Where “and” joins values, the source holds several entries; their conditions need not be identical. Identical values can stand only once.

The subject of one data set is SW620 cells. In words: Cytotoxicity assay, CellTiter-Glo 2.0, SW620 cells. The class given is cell-based. As to conditions: SW-620; SW620, human colon cancer cell line expressing mutant G12V kRAS; 48 hours. On the procedure: FIG. 6, panels A-B, illustrate the cytotoxicity of Structure 2 and Structure 3 on SW620 Cells. The cytotoxicity of compounds of interest were tested against the human colon cancer cell line SW620 as described in the experimental section. SW620 cells express a mutant G12V kRAS. Compounds were incubated with cells for 48 hours and the assay was developed using Cell Titer Glo 2.0. IC50 values were determined using GraphPad Prism4.
(§1) Compounds were assayed for inhibition of cell proliferation and killing cancer cells. Cytotoxicity assays were conducted according to the following general procedure. SW480, SW48, SW900, SW620 were all maintained in Leibowitz L15 media supplemented with 10% fetal bovine serum and 1% PenStrep and grown in a 37° C. incubator without supplemental CO2. Capan-1 cells were maintained in Iscove's Modified Dulbecco's Medium (ATCC 30-2005) containing 20% fetal bovine serum and 1% PenStrep and grown in a 37° C. incubator containing 5% CO2.
For dose-response assays, SW480 cells were plated into 96 well plates (1 million/plate, ˜10,000/well, 250 μL media/well). Cells were allowed to settle and adhere to plate bottom overnight Compounds were placed in 500 μL media and mixed. Then 250 μL compounds+media was placed in an intermediate plate in row A. Rows B through H were filled with 125 μL media. […] Luminescence was read with FLx800 (BioTek Instruments).

In the next data set the test system is HT29. In words: Cytotoxicity assay, HT29 cells. The class given is cell-based. The following applies: human colon cancer cell line HT29. On the procedure:
as §1

In data set [1] the test system is flies expressing G12V in their wing. Put plainly: Fly assay, wing phenotype reversal. The class given is in vivo, Drosophila. From the text:
Each wing from mutant flies receiving treatment with either water or compound received a score from two independent scorers according to the scheme outlined in the schematic. The analysis of the scores given to the compound group was compared to the scores given for the control (water) group.
Embryo preparation. GAL4 virgin ♀ were collected over a period of 3-5 days, then crossed with kRAS G12V (3M) ♂ inside a plastic condo supplied with grape agar containing yeast paste. Flies were acclimated for 2 days and embryos present after a span of 4-5 hours were collected along with the agar plate and incubated for 24 hours. The next day, embryos were washed off the agar plate with Embryo Wash solution (120 mM NaCl, 0.03% Triton X) and resuspended in Embryo Inoculation solution (120 mM NaCl, 420 mM Sucrose, 0.05% Triton X-100). Embryos were counted and diluted to 15 embryos/10 μL. 150 embryos (100 μL) were dispensed into each vial.
Food-drug admix preparation. Each fly vial contains 1.5 g of fly food in 4 ml water. The quantity of drug needed is calculated for a total of 4 vials, each vial containing 10 μM of Structure 2. This is equivalent to 0.014 mg of Structure 2/vial, for a total of 0.056 mg of Structure 2.
A stock solution of 0.1 mg/mL Structure 2 in ethanol is prepared. A 500-ml round bottom flask is charged with 6 g of fly food (1.5 g×4), to which is added 20 mL of ethanol, ensuring that the food is entirely covered in solvent. To this heterogeneous solution is added an appropriate amount of Structure 2 stock solution, containing the calculated required quantity, in this case 0.56 mL stock solution.
The ethanol is evaporated under reduced pressure via a rotary evaporator equipped with a bump trap. The resulting dry food is added to three vials, each containing 1.5 g, so that the experiment is performed in triplicate. The quantity is calculated initially for 4 vials, because some food will be stuck to the walls of the round bottom flask and some is also invariably lost in the bump trap during the solvent evaporation step. Control vials lacking Structure 2 or Structure 3 are also analyzed and undergo the exact same food preparation and solvent extraction procedure.
Embryo addition to vials. After all the food-drug admix is prepared and added to the respective vials, to each vial is added 4 mL of water and the vial briefly vortexed. To this liquid mixture is added the embryo solution (100 μL), the vials capped and placed in an incubator or fly room.
Wing mounting and scoring. Flies hatch 10-12 days after the above experimental setup is performed. The resulting adult flies are submerged in a 3:1 70% ethanol:glycerol solution for 24 hours, then wings are dissected with curved Vannas spring scissors (FST #15001-08). The wings are mounted in an 80% glycerol solution on a microscope slide under coverslip seal.
Pictures of the wings were taken using an Accu-Scope microscope equipped with a digital camera and connected to a laptop containing the Accu-Scope Micrometric SE Premium software. The wings were scored according to the following scoring tree:
Wing score analysis. After each wing received a score from two independent scorers, the analysis of the scores given to the Structure 2 and 3 groups was compared to the scores given for the control group and was performed using the IBM SPSS software.
Wings that received a score of 3 or above are considered “reversed”, since their phenotype is closer to WT than to kRAS G12V bearing Drosophila. The findings are plotted in FIG. 9. […]

The compound `Cc1nc(-c2ccc(CNC(=O)c3cc(CC(C)C)nn3C)cc2)no1` [Structure 2, 3-isobutyl-1-methyl-N-(4-(5-methyl-1,2,4-oxadiazol-3-yl)benzyl)-1H-pyrazole-5-carboxamide] had an IC50 in the data set with SW620 cells of 55 nM. Moreover, the “not cytotoxic at concentrations up to” value in the data set with HT29 is more than 40 µM. Also, in data set [1] (10 μmolar in fly food, control 1.86 ± 0.62), the “Wing score, Scored 1-6, Mean ± SD” value was 2.15. Moreover, in data set [1] (Tukey HSD and LSD p<0.001, Mann Whitney p=0.002), the “wing scores compared to the control group” value is “significantly different from the control group”. In data set [1] (wings with score of 3 or above, Structure 2 at 10 μmolar, control 8.27), the “Reversal Phenotype (%)” value was 24% and 24.31%.

As usually defined, the IC50 is the point on the concentration scale where inhibition reaches its midpoint.

The values above are taken from US12486255B2, “Modulators of RAS GTPase” (Tosk, Inc., priority 2018, dated 2025).
